PubChem BioAssay (NCI)
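Tested at 5 concentrations; 48 h exposure; 96-well plates; endpoints linearly interpolated, else capped at highest concentration. GI50: concentration for 50% inhibition of growth. The concentration for full growth arrest is given as TGI.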

Columns and labels:
Experiment in all cases: NCI tumour cell line growth inhibition, 48 h
SF-539 CNS = test system: SF-539 CNS
SK-MEL-2 melanoma = test system: SK-MEL-2 melanoma
SK-OV-3 ovarian = test system: SK-OV-3 ovarian
NCI-H460 lung = test system: NCI-H460 lung
HOP-62 NSCLC = test system: HOP-62 NSCLC
NCI-H23 lung = test system: NCI-H23 lung
CAKI-1 renal = test system: CAKI-1 renal
OVCAR-4 ovarian = test system: OVCAR-4 ovarian
HT29 colon = test system: HT29 colon
DU-145 prostate = test system: DU-145 prostate

Structure (SMILES) | GI50 (SF-539 CNS) [µM] | TGI (SF-539 CNS) [µM] | GI50 (SK-MEL-2 melanoma) [µM] | TGI (SK-MEL-2 melanoma) [µM] | GI50 (SK-OV-3 ovarian) [µM] | TGI (SK-OV-3 ovarian) [µM] | GI50 (NCI-H460 lung) [µM] | TGI (NCI-H460 lung) [µM] | GI50 (HOP-62 NSCLC) [µM] | TGI (HOP-62 NSCLC) [µM] | GI50 (NCI-H23 lung) [µM] | TGI (NCI-H23 lung) [µM] | GI50 (CAKI-1 renal) [µM] | TGI (CAKI-1 renal) [µM] | GI50 (OVCAR-4 ovarian) [µM] | TGI (OVCAR-4 ovarian) [µM] | GI50 (HT29 colon) [µM] | TGI (HT29 colon) [µM] | GI50 (DU-145 prostate) [µM] | TGI (DU-145 prostate) [µM]
CCOC(=O)/C=C/c1ccc(C#Cc2ccccc2)cc1 | 1.54 | > 100 | > 100 | > 100 | > 100 | > 100 | 66.1 | > 100 | > 100 | > 100 | 95 | > 100 | > 100 | > 100 | 68.4 | > 100 | > 100 | > 100 | – | –
CCCCCCCN=C(N)c1ccc(N2CCN(c3ccc(C(N)=NCCCCCCC)cc3)CC2)cc1 | – | – | 1.99 | > 100 | 0.735 | > 26.4 | – | > 80.8 | 2.5 | > 100 | – | – | 0.474 | 21.4 | 1.05 | > 13.2 | 2.98 | > 100 | 0.296 | 21.8
CC(C)=CCc1cc(O)cc2c1OC(C=C(C)C)C1=C2C(=O)C2=C(C1=O)S(=O)(=O)CCN2 (stereo not given) | 2.8 | 5.09 | 3.13 | 6.56 | 8.06 | > 16.7 | 5.23 | > 16.7 | 5.66 | > 16.7 | 3.85 | 12.9 | – | – | 2.77 | 6.72 | 6.61 | > 16.7 | 2.93 | 5.37
C[Si](C)(C)/C(Br)=C\CCN1C(=O)CCC1=O | – | > 100 | – | > 100 | – | > 100 | – | > 100 | – | > 100 | – | > 100 | – | > 100 | – | > 100 | – | > 100 | – | –
O=C(/C=C/C=C/c1ccccc1)c1ccccc1 | – | 32.8 | – | 45.5 | – | 70.4 | – | 49.5 | – | – | – | – | – | 31.4 | – | 39.7 | – | 30.8 | – | 40.1
Oc1ccc2ccccc2c1N=Nc1ccc(Br)cc1 | – | – | – | > 100 | – | > 100 | – | – | – | > 100 | – | > 100 | – | > 100 | – | 96.3 | – | > 100 | – | > 100
CC(C(=O)O)c1cccc(Oc2ccccc2)c1 (stereo not given) | > 100 | > 100 | – | – | > 100 | > 100 | > 100 | > 100 | > 100 | > 100 | > 100 | > 100 | > 100 | > 100 | – | – | > 100 | > 100 | > 100 | > 100
CC(C)(C)[Si](C)(C)OC1C(=O)C[C@H]2CCCC[C@@H]12 (stereo not given in full) | – | > 100 | – | > 100 | – | > 100 | – | > 100 | – | > 100 | – | > 100 | – | > 100 | – | > 100 | – | > 100 | – | –
Oc1ccc(Nc2c3ccccc3nc3occ(Cl)c23)cc1 | – | – | 2.62 | 7.26 | 4.77 | > 100 | 3.68 | 28.9 | 4.37 | 36.2 | 3.26 | > 100 | 3.95 | > 100 | 7.44 | > 100 | 4.49 | > 100 | 22.4 | > 100
O=[N+]([O-])c1ccc(CI)cc1 | 2.66 | 8.19 | – | – | 4.53 | 15.5 | 3.2 | 10.5 | 3.38 | 12.5 | 3.32 | 12.4 | 1.91 | 3.98 | 3.6 | 18.6 | – | – | 2.78 | 7.08
COC(=O)C1=C(C(=O)OC)C2=S(SC3=C2CCCC3)S1 (stereo not given) | – | 74 | – | 85.6 | – | > 100 | – | > 100 | – | > 100 | – | > 100 | – | > 100 | – | > 100 | – | 87.8 | – | –
[N-]=[N+]=N/C1=C/CCCCC(=O)C1 | – | – | – | > 100 | – | > 100 | – | > 100 | – | > 100 | – | > 100 | – | > 100 | – | > 100 | – | > 100 | – | –
O=c1[nH]c2ccc(O)cc2o1 | – | > 100 | – | – | – | > 100 | – | > 100 | – | > 100 | – | > 100 | – | > 100 | – | > 100 | – | > 100 | – | > 100
O=C1c2cc3c(cc2-c2c1c1cc(Cl)c(Cl)cc1c(=O)n2C[C@H](O)CO)OCO3 | < 0.01 | 0.0175 | 0.0488 | 0.374 | < 0.01 | 0.0536 | < 0.01 | 0.0268 | < 0.01 | 0.0326 | < 0.01 | 0.0448 | – | – | – | – | – | – | < 0.01 | 1.8
Cc1ccc2c(C3C(C#N)=C(N)Oc4cc5ccccc5cc43)cc(=O)oc2c1 (stereo not given) | 0.873 | 7.6 | 11.7 | > 100 | 2.04 | > 100 | 0.883 | 15.5 | 1.22 | > 100 | 6.06 | > 100 | – | – | 11.4 | > 100 | 3 | 13.1 | 3.79 | > 100
O=C1CCC(=O)c2c1c(O)c1ccncc1c2O | – | 29 | – | 26.4 | – | 98.8 | – | 30.7 | – | 69 | – | 31.9 | – | 42.4 | – | 25.6 | – | 21.3 | – | –
CC(=O)N1CCC(=O)/C(=C/c2ccccc2)C1 | – | > 100 | – | – | – | > 100 | – | > 100 | – | > 100 | – | > 100 | – | 30 | – | 37.8 | – | 38.8 | – | –
COC12OCCN(C)C1=CC(=O)C1=NNC(C)C12 (stereo not given) | – | > 100 | – | – | – | > 100 | – | > 100 | – | – | – | > 100 | – | > 100 | – | – | – | > 100 | – | –
C[C@H]1CN[C@@H]2[C@@H](C)[C@H]3[C@@H](C[C@H]4[C@@H]5CC[C@H]6C[C@@H](N)CC[C@]6(C)[C@H]5CC[C@]34C)O[C@@]2(O)C1 | – | 3.27 | – | 12.2 | – | 19.7 | – | 7.78 | – | – | – | 26.9 | – | 6.43 | – | 17.5 | – | 3.9 | – | 16.9
